# From patent US20090275474A1, “PESTICIDAL APPLICATIONS OF DIMETHYL CYANAMIDE” (Metbro Distributing L.P., priority 2008, published 2009)
# “Also recorded” adds a separate entry of the source.
# Tests used:
# Type in all cases: in vivo
# [1] = tested on: dorylaimida (predatory, not plant parasitic nematodes); experiment: Example 1 pot test, soil populations of dorylaimida; conditions: soil drench 25-200 mg A.I./kg soil
# Method: (§1) Hydrogen cyanamide (Dormex® formulation, Dormex Corp.) and dimethyl cyanamide (Aldrich) were delivered in aqueous preparations (1.25% active ingredient) (A.I.) prepared immediately before use by diluting in demineralized water while stirring with a magnetic stirrer. Each compound was delivered at rates of 0, 25, 50, 75, 100, 150, and 200 mg A.I./kg soil—equivalent to 0, 50, 100, 150, 200, 300, and 400 lbs A.I./acre.
# (§2) Each treatment was delivered by drenching the compound in 100 mL aqueous volume onto the soil surface in pots (10-cm diam.; PVC) containing 1 kg soil. The soil (silt loam; pH 6.2; cec<10 meq/100 gm soil; org. matter<1.0%) was from a cotton field severely infested with the reniform nematode (Rotylenchulus reniformis). Immediately after treatment the pots were covered with a thick (1.5 mil) clear low density polyethylene bag held tight against the outer wall of the pot by a rubber band. Eleven days after application the bags were removed and soil samples were taken from every pot (experimental unit) for nematological analysis (salad bowl incubation technique). […] Final root and soil nematode populations were determined and plant growth parameters (number & height of plants, weights of shoots and roots, root condition indices) were recorded. […]
# [2] = tested on: Yellow nutsedge [Cyperus esculentus], crabgrass [Digitaria sanguinalis], sicklepod [Senna obtusifolia], morningglory [Ipomoea spp.], and other annual weeds; experiment: Example 3 herbicidal pot test, soil drench, weed counts; conditions: for herbicidal activity against all weed species tested: soil drench 100-800 mgs. A.I./kg soil, weed counts 11, 19, 26 and 32 days after application, FIGS. 11-12
# Method: Hydrogen cyanamide and dimethyl cyanamide were delivered in aqueous 5% solutions prepared immediately before use by diluting in demineralized water while stirring with a magnetic stirrer. Both chemicals were obtained from Aldrich. Each compound was delivered at rates of 0, 100, 200, 300, 400, 600, and 800 mgs. A.I./kg soil—equivalent to 0, 200, 400, 600, 800, 1200, and 1600 lbs A.I./acre.
# (§3) Each treatment was delivered by drenching in 100 mL aqueous volume onto the soil surface in pots [10-cm diam.; PVC] containing 1 kg soil. The soil was from a cotton field [silt loam; ph 6.2; cec<10 meq/100 gm soil; org. matter<1.0%]. Immediately after treatment the pots were covered by a thick [1.5 mil] clear low density polyethylene bag held tight against the outer wall of the pot by a rubber band. Eleven days after application the bags were removed. Weed counts were taken from each pot [experimental unit] at 11, 19, 26 and 32 days after application of the treatments.
# Major pests: Yellow nutsedge [Cyperus esculentus], crabgrass [Digitaria sanguinalis], sicklepod [Senna obtusifolia], morningglory [Ipomoea spp.], and other annual weeds.
# Experimental design: Randomized complete block with seven replications/treatments.
# (§4) Statistical analyses: ANOVA and Fischer's least significant difference [FLSD] at p 0.05. Regression analyses.
# [3] = tested on: Yellow nutsedge [Cyperus esculentus], crabgrass [Digitaria sanguinalis], sicklepod [Senna obtusifolia], morningglory [Ipomoea spp], and other annual weeds; experiment: Example 4 herbicidal pot test, dimethyl cyanamide alone and in combination with EPTC, weed counts
# Method: Dimethyl cyanamide was delivered in a 5% aqueous solution. The herbicide EPTC [ethyl n-propyl thiocarbamate] was delivered in an aqueous emulsion containing 0.1192% A.I. Both formulations were prepared immediately before use by diluting or mixing [a concentrated formulation?] in demineralized water while stirring with a magnetic stirrer. The dimethyl cyanamide was obtained from Aldrich. The EPTC used was a commercial formulation [Eptam® herbicide, Gowan].
# Dimethyl cyanamide was applied at rates of 0, 50, 100, 200, 300, and 400 mg A.I./kg soil—equivalent to 0, 100, 200, 400, 600, and 800 lbs A.I./acre, respectively. EPTC was delivered at 0 and 3.576 mg/kg soil, equivalent to 0 and approximately 7 lbs. A.I./acre. All possible combinations of the two compounds at their corresponding rates were included in the experiment.
# as §3, with “matter<1.0%1.” for “matter<1.0%].”, “Six” for “Eleven”, “6, 12, 17, 47,” for “11, 19, 26”, “62” for “32”, “treatments. […]” for “treatments.”
# [4] = tested on: dorylaimida (predatory, not plant parasitic nematodes); experiment: Example 2 pot test, soil populations of dorylaimida; conditions: soil drench 20-150 mgs. A.I./kg soil
# Method: (§5) Dimethyl cyanamide and diisopropyl cyanamide (both obtained from Aldrich) were delivered in aqueous preparations (1.25% active ingredient) (A.I.) prepared immediately before use by diluting in demineralized water while stirring with a magnetic stirrer. […] Each compound was delivered at rates of 0, 20, 40, 60, 80, 100, and 150 mgs. A.I./kg soil—equivalent to […].
# as §2, with “drenching” for “drenching the compound”, “nematode [Rotylenchulus reniformis].” for “nematode (Rotylenchulus reniformis).”, “covered by” for “covered with”, “(number and” for “(number &”
# [5] = tested on: beneficial microbivorous nematodes; experiment: Example 2 pot test, microbivorous nematodes in soil; conditions: soil drench 20-150 mgs. A.I./kg soil
# Method: as §5
# as §2, with “drenching” for “drenching the compound”, “nematode [Rotylenchulus reniformis].” for “nematode (Rotylenchulus reniformis).”, “covered by” for “covered with”, “(number and” for “(number &”
# [6] = tested on: "Hutcheson" soybean (glycine max); experiment: Example 1 pot test, growth of soybean plants in nematode-infested soil; conditions: after eight weeks of growth
# Method: as §1, §2
# [7] = tested on: "Rowden" cotton (Gossipyum hirsutum); experiment: Example 2 pot test, growth and root health of cotton plants in nematode-infested soil
# Method: as §5
# Each treatment was delivered by drenching in 100 mL aqueous volume onto the soil surface in pots (10-cm diam.; PVC) containing 1 kg soil. The soil (silt loam; pH 6.2; cec<10 meq/100 gm soil; org. matter<1.0%) was from a cotton field severely infested with the reniform nematode [Rotylenchulus reniformis]. Immediately after treatment the pots were covered by a thick (1.5 mil) clear low density polyethylene bag held tight against the outer wall of the pot by a rubber band. Eleven days after application the bags were removed and soil samples were taken from every pot (experimental unit) for nematological analysis (salad bowl incubation technique). Each pot was then planted with five seeds of nematode-susceptible “Rowden” cotton (Gossipyum hirsutum) and the resulting plants were grown for eight weeks, at which time the plants were removed and soil samples were taken from each pot. Final root and soil nematode populations were determined and plant growth parameters (number and height of plants, weights of shoots and roots, root condition indices) were recorded.
# (§6) Experimental design: Randomized complete block with seven replications/treatment.
# Statistical analyses: ANOVA and Fischer's least significant difference [FLSD] at p
# 0.05. Regression analyses.
# [8] = tested on: reniform nematode (Rotylenchulus reniformis); experiment: Example 1 pot test, soil drench, reniform nematode in soil and soybean roots; conditions: for nematicidal activity against the reniform nematode in soil and soybean roots: soil drench 25-200 mg A.I./kg soil, soil sampled 11 days after application and after eight weeks of soybean growth, FIGS. 1-6
# Method: as §1
# Each treatment was delivered by drenching the compound in 100 mL aqueous volume onto the soil surface in pots (10-cm diam.; PVC) containing 1 kg soil. The soil (silt loam; pH 6.2; cec<10 meq/100 gm soil; org. matter<1.0%) was from a cotton field severely infested with the reniform nematode (Rotylenchulus reniformis). Immediately after treatment the pots were covered with a thick (1.5 mil) clear low density polyethylene bag held tight against the outer wall of the pot by a rubber band. Eleven days after application the bags were removed and soil samples were taken from every pot (experimental unit) for nematological analysis (salad bowl incubation technique). Each pot was then planted with five seeds of nematode-susceptible “Hutcheson” soybean (glycine max) and the resulting plants were grown for eight weeks, at which time the plants were removed and soil samples were taken from each pot. Final root and soil nematode populations were determined and plant growth parameters (number & height of plants, weights of shoots and roots, root condition indices) were recorded.
# Major pests: The reniform nematode [Rotylenchulus reniformis].
# as §6, §4
# [9] = tested on: reniform nematode [Rotylenchulus reniformis]; experiment: Example 2 pot test, soil drench, reniform nematode in soil; conditions: soil drench 20-150 mgs. A.I./kg soil; FIGS. 7-10
# Method: as §5
# as §2, with “drenching” for “drenching the compound”, “nematode [Rotylenchulus reniformis].” for “nematode (Rotylenchulus reniformis).”, “covered by” for “covered with”, “(number and” for “(number &”
# [10] = tested on: beneficial microbivorous nematodes; experiment: Example 1 pot test, microbivorous nematodes in soil; conditions: soil drench 25-200 mg A.I./kg soil
# Method: as §1, §2
SMILES,soil populations of dorylaimida [1],"herbicidal activity compared with hydrogen cyanamide ([2]; dose-response expressed in terms of mg of CN added to the soil, one exception (sicklepod))",herbicidal activity against all weed species tested [2],herbicidal activity of dimethyl cyanamide during the initial counts in the presence of EPTC [3],soil populations of dorylaimida [4],soil populations of beneficial microbivorous nematodes [5],"soybean plant height and weights of shoots and roots, compared with pots treated with hydrogen cyanamide [6]","root health as indicated by root appearance indices ([7]; dimethyl cyanamide: two highest rates, diisopropyl cyanamide: any rate)","number of cotton plants/pot, dimethyl cyanamide vs diisopropyl cyanamide ([7]; in vivo)","cotton plant heights and shoot and root weights ([7]; two highest rates, after eight weeks)",effectiveness as a nematicide relative to hydrogen cyanamide ([8]; considered in terms of the rates of cyanamide anion applied),"overall results on delivery at the same rate (kg/ha) as hydrogen cyanamide ([8]; same weight rate, hydrogen cyanamide contains approximately 1.66 times as much cyanamide (NCN group))",nematicidal activity against the reniform nematode in soil and soybean roots [8],nematicidal activity against the reniform nematode in soil [9],effect on beneficial microbivorous nematodes [10],"root populations of the reniform nematode, compared between the two compounds ([8]; soybean roots after eight weeks, hydrogen cyanamide vs dimethyl cyanamide)"
"CN(C)C#N [dimethyl cyanamide, Dimethyl cyanamide]",similarly reduced,superior to hydrogen cyanamide as a herbicide,herbicidal against all weed species tested; also recorded: considerable herbicidal activity equivalent to or better than that shown by hydrogen cyanamide,almost “masked” by that of EPTC,either reduced or not affected,either reduced or not affected,taller and with heavier shoots and roots,markedly improved,higher,concomitant increase,more effective as a nematicide than hydrogen cyanamide,very similar results overall,"nematicidal, resulting in suppression or elimination of the reniform nematode in soil and soybean roots; also recorded: powerful nematicide","nematicidal, resulting in suppression or elimination of the reniform nematode in soil; also recorded: powerful nematicide",not significantly affected,–
"CC(C)N(C#N)C(C)C [diisopropyl cyanamide, reference compound]",–,–,–,–,either reduced or not affected,either reduced or not affected,–,–,–,–,–,–,–,–,–,–
"N#CN [hydrogen cyanamide, Hydrogen cyanamide, reference compound]",similarly reduced,–,herbicidal against all weed species tested,–,–,–,–,–,–,–,–,–,"nematicidal, resulting in suppression or elimination of the reniform nematode in soil and soybean roots",–,not significantly affected,lower
